Source: patent US10799496B2, “Naphthylenyl compounds for long-acting injectable compositions and related methods” (priority 2018, dated 2020)

Experiment: Pharmacokinetic evaluation of the release of naltrexone from Compound 2 in rats following a single intramuscular injection
Type: in vivo, Sprague-Dawley rats
Settings: for Compound 2 conc.: rat plasma
Method: Five male Sprague-Dawley rats were allowed to acclimate to the test facility for at least 2 days prior to study start. For dose administration of Compound 2, the rats were lightly anesthetized with isofluorane, the hind leg shaved and dosed intramuscularly with the formulation using a 21G needle. […] Serial whole blood samples were collected via sublingual route (˜150 μL) at 1, 8, and 24 hours post dose, and at 2, 4, 7, 10, 14, 17, 21, 24, 28, 35, 42, 49, 56, 63, 71, 78, 85, and 91 days post dose.
Blood samples were placed into K2EDTA blood collection tubes. After collection, blood samples were maintained chilled (on wet ice) and centrifuged (11,500 rpm for 2 minutes at 5 degrees C.) within 30 minutes to obtain plasma. Plasma was transferred into a single vial, 1.5 mL screw cap micro-centrifuge tube with inserts and stored at −80 degrees C. until analysis.
The formulation dosed was a crystalline suspension of Compound 2 (46 milligrams of Compound 2 dosed per animal), wherein the crystalline test article was characterized with a particle size distribution of Dv10=12.9 μm, Dv50=31.5 μm, and Dv90=63.1 μm (as measured via laser diffraction). The formulation was prepared the day before dosing. Details of the formulation dosed are described in Table D below.
Results of the above intramuscular rat study of Compound 2 are shown in Tables E and F. In particular, Table E reports the average blood plasma levels of naltrexone in rat (n=5) over 91 days following intramuscular administration.

Compound: O=C(Cc1ccc2cc(CC(=O)Oc3ccc4c5c3O[C@H]3C(=O)CC[C@@]6(O)[C@@H](C4)N(CC4CC4)CC[C@]536)ccc2c1)Oc1ccc2c3c1O[C@H]1C(=O)CC[C@@]4(O)[C@@H](C2)N(CC2CC2)CC[C@]314 [Compound 2, bis((4R,4aS,7aR,12bS)-3-(cyclopropylmethyl)-4a-hydroxy-7-oxo-2,3,4,4a,5,6,7,7a-octahydro-1H-4,12-methanobenzofuro[3,2-e]isoquinolin-9-yl) 2,2′-(naphthalene-2,6-diyl)diacetate]
- Compound 2 conc. (single i.m. dose of Compound 2, day 28, Rat 1): 0.236 ng/mL
- Compound 2 conc. (single i.m. dose of Compound 2, day 28, Rat 2): 0.193 ng/mL
- Compound 2 conc. (single i.m. dose of Compound 2, day 28, Rat 3): 0.205 ng/mL
- Compound 2 conc. (single i.m. dose of Compound 2, day 28, Rat 4): 0.176 ng/mL
- Compound 2 conc. (single i.m. dose of Compound 2, day 28, Rat 5): 0.111 ng/mL
- Compound 2 conc. (single i.m. dose of Compound 2, day 35, Rat 1): 0.165 ng/mL
- Compound 2 conc. (single i.m. dose of Compound 2, day 35, Rat 2): 0.439 ng/mL
- Compound 2 conc. (single i.m. dose of Compound 2, day 35, Rat 3): 0.350 ng/mL
- Compound 2 conc. (single i.m. dose of Compound 2, day 35, Rat 4): 0.265 ng/mL
- Compound 2 conc. (single i.m. dose of Compound 2, day 35, Rat 5): 0.152 ng/mL
- Compound 2 conc. (single i.m. dose of Compound 2, day 42, Rat 1): 0.155 ng/mL
- Compound 2 conc. (single i.m. dose of Compound 2, day 42, Rat 2): 0.156 ng/mL
- Compound 2 conc. (single i.m. dose of Compound 2, day 42, Rat 3): 0.212 ng/mL
- Compound 2 conc. (single i.m. dose of Compound 2, day 42, Rat 4): 0.199 ng/mL
- Compound 2 conc. (single i.m. dose of Compound 2, day 42, Rat 5): 0.205 ng/mL
- Compound 2 conc. (single i.m. dose of Compound 2, day 49, Rat 1): <0.1 ng/mL
- Compound 2 conc. (single i.m. dose of Compound 2, day 49, Rat 2): <0.1 ng/mL
- Compound 2 conc. (single i.m. dose of Compound 2, day 49, Rat 3): <0.1 ng/mL
- Compound 2 conc. (single i.m. dose of Compound 2, day 49, Rat 4): <0.1 ng/mL
- Compound 2 conc. (single i.m. dose of Compound 2, day 49, Rat 5): <0.1 ng/mL
- Compound 2 conc. (single i.m. dose of Compound 2, day 56, Rat 1): 0.358 ng/mL
- Compound 2 conc. (single i.m. dose of Compound 2, day 56, Rat 2): 0.205 ng/mL
- Compound 2 conc. (single i.m. dose of Compound 2, day 56, Rat 3): 0.105 ng/mL
- Compound 2 conc. (single i.m. dose of Compound 2, day 56, Rat 4): 0.170 ng/mL
- Compound 2 conc. (single i.m. dose of Compound 2, day 56, Rat 5): 0.163 ng/mL
- Compound 2 conc. (single i.m. dose of Compound 2, day 63, Rat 1): <0.1 ng/mL
- Compound 2 conc. (single i.m. dose of Compound 2, day 63, Rat 2): <0.1 ng/mL
- Compound 2 conc. (single i.m. dose of Compound 2, day 63, Rat 3): <0.1 ng/mL
- Compound 2 conc. (single i.m. dose of Compound 2, day 63, Rat 4): 0.142 ng/mL
- Compound 2 conc. (single i.m. dose of Compound 2, day 63, Rat 5): <0.1 ng/mL
- Compound 2 conc. (single i.m. dose of Compound 2, day 71, Rat 1): <0.1 ng/mL
- Compound 2 conc. (single i.m. dose of Compound 2, day 71, Rat 2): <0.1 ng/mL
- Compound 2 conc. (single i.m. dose of Compound 2, day 71, Rat 3): <0.1 ng/mL
- Compound 2 conc. (single i.m. dose of Compound 2, day 71, Rat 4): <0.1 ng/mL
- Compound 2 conc. (single i.m. dose of Compound 2, day 71, Rat 5): <0.1 ng/mL
- Compound 2 conc. (single i.m. dose of Compound 2, day 78, Rat 1): <0.1 ng/mL
- Compound 2 conc. (single i.m. dose of Compound 2, day 78, Rat 2): <0.1 ng/mL
- Compound 2 conc. (single i.m. dose of Compound 2, day 78, Rat 3): <0.1 ng/mL
- Compound 2 conc. (single i.m. dose of Compound 2, day 78, Rat 4): <0.1 ng/mL
- Compound 2 conc. (single i.m. dose of Compound 2, day 78, Rat 5): <0.1 ng/mL
- Compound 2 conc. (single i.m. dose of Compound 2, day 85, Rat 1): <0.1 ng/mL
- Compound 2 conc. (single i.m. dose of Compound 2, day 85, Rat 2): <0.1 ng/mL
- Compound 2 conc. (single i.m. dose of Compound 2, day 85, Rat 3): <0.1 ng/mL
- Compound 2 conc. (single i.m. dose of Compound 2, day 85, Rat 4): <0.1 ng/mL
- Compound 2 conc. (single i.m. dose of Compound 2, day 85, Rat 5): <0.1 ng/mL
- Compound 2 conc. (single i.m. dose of Compound 2, day 91, Rat 1): <0.1 ng/mL
- Compound 2 conc. (single i.m. dose of Compound 2, day 91, Rat 2): <0.1 ng/mL
- Compound 2 conc. (single i.m. dose of Compound 2, day 91, Rat 3): <0.1 ng/mL
- Compound 2 conc. (single i.m. dose of Compound 2, day 91, Rat 4): <0.1 ng/mL
- Compound 2 conc. (single i.m. dose of Compound 2, day 91, Rat 5): <0.1 ng/mL
- plasma concentrations of parent Compound 2 and the resultant intermediate (rat, single i.m. dose of Compound 2, over 91 days): generally low to not measurable
- conversion of Compound 2 in rats to naltrexone (rat, single i.m. dose, over 91 days): efficient conversion
